Assay results: patent US11155586B2, “Cystine knot scaffold platform” (Genentech, Inc., priority 2015, dated 2021)
Positions of bridges follow the written chain, without caps; N, C: chain ends. Residues, ends and D or L forms follow the SMILES beside them.

Legend:
[1] = molecular target: T1, hVEGF(8-109) (Homo sapiens, UniProt P15692); test: Spot phage ELISA; type: binding
T1 construct: hVEGF(8-109) or BSA were coated on 384-well MAXISORP™ immunoplates
T1 sequence (P15692 214-315): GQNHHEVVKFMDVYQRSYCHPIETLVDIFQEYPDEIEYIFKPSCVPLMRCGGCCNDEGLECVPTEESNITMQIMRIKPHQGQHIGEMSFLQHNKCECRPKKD
Protocol: After four rounds of binding selection, individual phage clones were picked and inoculated into 450 μl 2YT media containing 50 µg/ml Carbenecillin and M13-KO7 helper phage in 96-well blocks, which were grown at 37° C. overnight. The supernatant was analyzed with spot phage ELISA as follows: hVEGF(8-109) or BSA were coated on 384-well MAXISORP™ immunoplates and phage supernatant diluted (1:3) with PBT buffer was added to the wells. The plates were washed and bound phage was detected with anti-M13-HRP followed by TMB substrate. In these assays, phage binding to BSA alone was tested in parallel to assess background binding. Clones whose binding signals for hVEGF-A (8-109) were more than 3 times higher than to BSA (background) were considered positive. Positive clones were subjected to DNA sequence analysis.

[2] = molecular target: T2, hVEGF-A (8-109) (Homo sapiens, UniProt P15692); test: SPR binding assay (BIACORE 3000, 37° C.)
T2 sequence (P15692 34-135 isoform P15692-4): T1 sequence (P15692 214-315)
Protocol: Depending on the format of the assay either a streptavidin sensor (SA) or a dextran-coated (CM5) sensor was utilized as described below.
For use with the SA sensor, VEGF-A was first biotinylated (no more than 2 biotin/VEGF-A) by incubating the protein with EZ-link NHS-PEG4-Biotin (Pierce) in a 1:1.5 molar ratio respectively, in PBS for 2 hours on ice. Reaction was then quenched by addition of 10 molar excess of Glycine pH 8.0 and the sample was buffer exchanged into PBS using an Amicon 0.5 mL 3000 MWCO ultra-centrifugal filters (EMD Millipore). The biotinylation state of the protein was verified by LC-MS analysis. Biotinylated VEGF-A was then captured on the surface until a resonance unit (RU) signal of about ˜400. For immobilization of VEGF-A on CM5 sensor, the surface was first activated with a mixture of N-ethyl-N′-(3-dimethylaminopropyl)carbodiimide hydrochloride and N-hydroxysuccinimide (EDC/NHS) according to the supplier instructions. VEGF-A was then diluted into coupling buffer (0.1 M Acetate Buffer, pH 5.0) and injected until the signal reached about ˜400 RU followed by a wash with 1 M ethanolamine pH 8.0 to quench remaining activated sites.
Following the capture step, a series of the peptide concentrations were prepared in HBS-EP buffer with matching DMSO concentrations to 0.1% and injected at a flow rate of […]. The resulting sensorgrams were then analyzed using a 1:1 binding model to obtain kinetic data and affinities using Scrubber 2.0 (BioLogic Software).

[3] = Table 37, surface plasmon resonance, VEGF-A
[4] = loop 2 variants based on VEGF_CKP9.63 framework, Table 27

SMILES | kd [2, 3] | S/N (signal to noise ratio as compared to BSA control) ([1]; Table 27) | ELISA [1, 4] | kd ([2]; hVEGF-A (8-109), Table 29) | further results
CC[C@H](C)[C@@H]1NC(=O)[C@H](CC(N)=O)NC(=O)[C@@H](NC(=O)CN)CSSC[C@@H](C(=O)N[C@H](C(=O)N[C@H]2CSSC[C@@H](C(=O)NCC(=O)O)NC(=O)[C@H](CO)NC(=O)[C@H](CCC(N)=O)NC(=O)[C@H](Cc3ccc(O)cc3)NC(=O)[C@H](Cc3ccc(O)cc3)NC(=O)[C@H](CCC(N)=O)NC2=O)C(C)C)NC(=O)CNC(=O)[C@H](C)NC(=O)[C@H](CC(C)C)NC(=O)[C@@H]2CSSC[C@H](NC(=O)CNC(=O)[C@H](Cc3c[nH]c4ccccc34)NC(=O)[C@H](Cc3ccccc3)NC(=O)[C@@H]3CCCN3C(=O)[C@H](CC(C)C)NC(=O)[C@H](CCSC)NC1=O)C(=O)NCC(=O)N[C@@H](CCC(N)=O)C(=O)N[C@@H](CO)C(=O)N[C@@H](Cc1ccccc1)C(=O)N[C@@H](CCC(=O)O)C(=O)N2 [VEGF_CKP9.54.1] (H-GCNIMLPFWGCGQSFECLAGCVCQYYQSCG-OH; disulfide 2-21, 11-17, 23-29 (inferred); N-terminus and C-terminus assumed) | 0.36 |  |  |  | S/N (signal to noise ratio as compared to BSA control) ([1]; Table 26): 29.9; ELISA ([1]; loop 2 variants based on 9.54 framework, Table 26): 2.4
CC[C@H](C)[C@@H]1NC(=O)[C@H](CC(N)=O)NC(=O)[C@@H](NC(=O)CN)CSSC[C@@H](C(=O)N[C@H](C(=O)N[C@H]2CSSC[C@@H](C(=O)NCC(=O)O)NC(=O)[C@H](CO)NC(=O)[C@H](CCC(N)=O)NC(=O)[C@H](Cc3ccc(O)cc3)NC(=O)[C@H](Cc3ccc(O)cc3)NC(=O)[C@H](CCC(N)=O)NC2=O)C(C)C)NC(=O)CNC(=O)[C@H](C)NC(=O)[C@H](CC(C)C)NC(=O)[C@@H]2CSSC[C@H](NC(=O)CNC(=O)[C@H](Cc3c[nH]c4ccccc34)NC(=O)[C@H](Cc3ccc(O)cc3)NC(=O)[C@@H]3CCCN3C(=O)[C@H](CC(C)C)NC(=O)[C@H](CCSC)NC1=O)C(=O)NCC(=O)N[C@@H](CCCNC(=N)N)C(=O)N[C@@H](CC(=O)O)C(=O)N[C@@H](Cc1ccccc1)C(=O)N[C@@H](CCC(=O)O)C(=O)N2 [VEGF_CKP9.54.90.F8Y] (H-GCNIMLPYWGCGRDFECLAGCVCQYYQSCG-OH; disulfide 2-21, 11-17, 23-29 (inferred); N-terminus and C-terminus assumed) | 0.27 |  |  |  | effect of F8Y mutation on affinity/potency ([2]; SPR affinity (Table 37) and cellular IC50 (Table 38), vs variant without F8Y): modest improvement
CSCC[C@@H]1NC(=O)[C@H](C(C)C)NC(=O)[C@H](CC(=O)O)NC(=O)[C@@H](NC(=O)CN)CSSC[C@@H](C(=O)N[C@H](C(=O)N[C@H]2CSSC[C@@H](C(=O)NCC(=O)O)NC(=O)[C@H](CO)NC(=O)[C@H](CC(N)=O)NC(=O)[C@H](Cc3ccc(O)cc3)NC(=O)[C@H](Cc3c[nH]c4ccccc34)NC(=O)[C@H](Cc3c[nH]cn3)NC2=O)C(C)C)NC(=O)CNC(=O)[C@H](C)NC(=O)[C@H](CC(C)C)NC(=O)[C@@H]2CSSC[C@H](NC(=O)CNC(=O)[C@H](Cc3c[nH]c4ccccc34)NC(=O)[C@H](Cc3ccc(O)cc3)NC(=O)[C@@H]3CCCN3C(=O)[C@H](CCC(N)=O)NC1=O)C(=O)NCC(=O)N[C@@H](CCC(=O)O)C(=O)N[C@@H](CC(N)=O)C(=O)N[C@@H](Cc1ccccc1)C(=O)N[C@@H](CC(C)C)C(=O)N2 [VEGF_CKP9.63.1] (H-GCDVMQPYWGCGENFLCLAGCVCHWYNSCG-OH; disulfide 2-21, 11-17, 23-29 (inferred); N-terminus and C-terminus assumed) |  | 25.2 | 2.0 | 0.37 | 
CSCC[C@@H]1NC(=O)[C@H](CC(=O)O)NC(=O)[C@H](CCCNC(=N)N)NC(=O)CNC(=O)[C@@H]2CSSC[C@H](NC(=O)[C@H](CC(=O)O)NC1=O)C(=O)N[C@@H](CC(C)C)C(=O)N[C@@H](C)C(=O)NCC(=O)N[C@H](C(=O)N[C@H](C(=O)N[C@H]1CSSC[C@@H](C(=O)NCC(=O)O)NC(=O)[C@H](CO)NC(=O)[C@H](CC(N)=O)NC(=O)[C@H](Cc3ccc(O)cc3)NC(=O)[C@H](Cc3c[nH]c4ccccc34)NC(=O)[C@H](Cc3c[nH]cn3)NC1=O)C(C)C)CSSC[C@H](NC(=O)CN)C(=O)N[C@@H](CC(=O)O)C(=O)N[C@@H](C(C)C)C(=O)N[C@@H](CCSC)C(=O)N[C@@H](CCC(N)=O)C(=O)N1CCC[C@H]1C(=O)N[C@@H](Cc1ccc(O)cc1)C(=O)N[C@@H](Cc1c[nH]c3ccccc13)C(=O)NCC(=O)N2 [VEGF_CKP9.63.27] (H-GCDVMQPYWGCGRDMDCLAGCVCHWYNSCG-OH; disulfide 2-21, 11-17, 23-29 (inferred); N-terminus and C-terminus assumed) |  | 26.0 | 2.1 | 0.15 | 
CSCC[C@@H]1NC(=O)[C@H](CCC(=O)O)NC(=O)[C@@H]2CSSC[C@H](NC(=O)[C@H](CC(=O)O)NC(=O)[C@H](Cc3ccccc3)NC(=O)[C@H](CC(=O)O)NC1=O)C(=O)N[C@@H](CC(C)C)C(=O)N[C@@H](C)C(=O)NCC(=O)N[C@H](C(=O)N[C@H](C(=O)N[C@H]1CSSC[C@@H](C(=O)NCC(=O)O)NC(=O)[C@H](CO)NC(=O)[C@H](CC(N)=O)NC(=O)[C@H](Cc3ccc(O)cc3)NC(=O)[C@H](Cc3c[nH]c4ccccc34)NC(=O)[C@H](Cc3c[nH]cn3)NC1=O)C(C)C)CSSC[C@H](NC(=O)CN)C(=O)N[C@@H](CC(=O)O)C(=O)N[C@@H](C(C)C)C(=O)N[C@@H](CCSC)C(=O)N[C@@H](CCC(N)=O)C(=O)N1CCC[C@H]1C(=O)N[C@@H](Cc1ccc(O)cc1)C(=O)N[C@@H](Cc1c[nH]c3ccccc13)C(=O)NCC(=O)N2 [VEGF_CKP9.63.44] (H-GCDVMQPYWGCEMDFDCLAGCVCHWYNSCG-OH; disulfide 2-21, 11-17, 23-29 (inferred); N-terminus and C-terminus assumed) |  | 19.5 | 1.7 | 0.11 | 
CSCC[C@@H]1NC(=O)[C@H](C(C)C)NC(=O)[C@H](CC(=O)O)NC(=O)[C@@H](NC(=O)CN)CSSC[C@@H](C(=O)N[C@H](C(=O)N[C@H]2CSSC[C@@H](C(=O)NCC(=O)O)NC(=O)[C@H](CO)NC(=O)[C@H](CC(N)=O)NC(=O)[C@H](Cc3ccc(O)cc3)NC(=O)[C@H](Cc3c[nH]c4ccccc34)NC(=O)[C@H](Cc3c[nH]cn3)NC2=O)C(C)C)NC(=O)CNC(=O)[C@H](C)NC(=O)[C@H](CC(C)C)NC(=O)[C@@H]2CSSC[C@H](NC(=O)CNC(=O)[C@H](Cc3c[nH]c4ccccc34)NC(=O)[C@H](Cc3ccc(O)cc3)NC(=O)[C@@H]3CCCN3C(=O)[C@H](CCC(N)=O)NC1=O)C(=O)NCC(=O)N[C@@H](CCC(=O)O)C(=O)N[C@@H](CO)C(=O)N[C@@H](CC(C)C)C(=O)N[C@@H](CO)C(=O)N2 [VEGF_CKP9.63.69] (H-GCDVMQPYWGCGESLSCLAGCVCHWYNSCG-OH; disulfide 2-21, 11-17, 23-29 (inferred); N-terminus and C-terminus assumed) |  | 23.7 | 2.9 | 0.20 | 
CSCC[C@@H]1NC(=O)[C@H](CC(C)C)NC(=O)[C@H](CCC(N)=O)NC(=O)[C@@H](NC(=O)CN)CSSC[C@@H](C(=O)N[C@H](C(=O)N[C@H]2CSSC[C@@H](C(=O)NCC(=O)O)NC(=O)[C@H](CO)NC(=O)[C@H](CCC(N)=O)NC(=O)[C@H](Cc3ccc(O)cc3)NC(=O)[C@H](Cc3c[nH]c4ccccc34)NC(=O)[C@H](Cc3c[nH]cn3)NC2=O)C(C)C)NC(=O)CNC(=O)[C@H](C)NC(=O)[C@H](CC(C)C)NC(=O)[C@@H]2CSSC[C@H](NC(=O)CNC(=O)[C@H](Cc3c[nH]c4ccccc34)NC(=O)[C@H](Cc3ccccc3)NC(=O)[C@@H]3CCCN3C(=O)[C@H](CCC(N)=O)NC1=O)C(=O)N[C@@H](CCCCN)C(=O)N[C@@H](CCC(N)=O)C(=O)N[C@@H](CC(=O)O)C(=O)N[C@@H](CO)C(=O)N[C@@H](CC(=O)O)C(=O)N2 [VEGF_CKP9] (H-GCQLMQPFWGCKQDSDCLAGCVCHWYQSCG-OH; disulfide 2-21, 11-17, 23-29 (inferred); N-terminus and C-terminus assumed) | 40 |  |  |  | S/N (signal to noise ratio as compared to BSA control) ([1]; Table 19): 36.0; S/N (signal to noise ratio as compared to BSA control) ([1]; Table 22): 7.4; S/N (signal to noise ratio as compared to BSA control) ([1]; Table 23): 11.6; S/N (signal to noise ratio as compared to BSA control) ([1]; Table 24): 7.4; ELISA ([1]; VEGF_CKP9 Loop1/Loop5 affinity-matured variants, Table 24): 0.4; ELISA ([1]; VEGF_CKP9 Loop1 affinity-matured variants, Table 22): 0.4; ELISA ([1]; VEGF_CKP9 Loop5 affinity-matured variants, Table 23): 0.9; ELISA ([1]; spot phage ELISA signal, EETI-II-based binders against hVEGF-A, Table 19): 3.3
